Source: patent US20110218188A1, “SUBSTITUTED (PYRIDYL)-AZINYLAMINE DERIVATIVES AS FUNGICIDES” (priority 2008, published 2011)
Marks after values point to notes of the source that are not given here.

Experiment: Measurement of logP values by HPLC on reversed phase columns (EEC directive 79/831 Annex V.A8)
Format: physicochemical

chromatographic logP (pH 2.7) | logP (pH 2.7) | SMILES | further results
1.62 | – | O=C(O)c1cc(-c2ncnc(Nc3ccsc3)n2)ccn1 [Example C28, 4-[4-(3-thienylamino)-1,3,5-triazin-2-yl]pyridine-2-carboxylic acid] | –
– | 1.78 | CC(=O)N(c1ccsc1)c1ncnc(-c2ccnc(C(=O)N(C)CCC#N)c2)n1 [Example C29] | –
2.05 | – | CON(C)C(=O)c1cc(-c2ncnc(Nc3ccsc3)n2)ccn1 [Example C30, N-methoxy-N-methyl-4-[4-(3-thienylamino)-1,3,5-triazin-2-yl]pyridine-2-carboxamide] | –
– | 2.59 | CCON(CC)C(=O)c1cc(-c2ncnc(Nc3ccsc3)n2)ccn1 [Example C31] | –
– | – | CCN(OC)C(=O)c1cc(-c2ncnc(Nc3ccsc3)n2)ccn1 [Example C32] | logP (pH 7.8): 2.33^[c]
– | 2.26 | CCON(C)C(=O)c1cc(-c2ncnc(Nc3ccsc3)n2)ccn1 [Example C33] | –
